Test results reported in PubChem BioAssay (NCI).
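Grown in 96-well plates, cells were treated for 48 hours with each compound at five concentrations. Insufficient inhibition: endpoint recorded as highest concentration tested. GI50 marks 50% less growth. Definition used: TGI = concentration required for complete inhibition of growth.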

What was measured:
Assay in all cases: NCI-60 cell line screen, 48 h
[1] = tested on: HCT-116 colon
[2] = tested on: SF-295 CNS
[3] = tested on: SF-539 CNS
[4] = tested on: MDA-MB-231 breast
[5] = tested on: KM12 colon
[6] = tested on: SNB-75 CNS
[7] = tested on: NCI/ADR-RES ovarian
[8] = tested on: NCI-H226 lung
[9] = tested on: OVCAR-4 ovarian
[10] = tested on: RPMI-8226 leukemia

In the case of `COC(=O)c1nc(Cl)nc(Cl)c1Cl`, the TGI [1] is reported as 33.2 µM, the TGI [2] is reported as > 100 µM and the TGI [3] is reported as 75.3 µM. For the same compound, the TGI [4] was 42.9 µM, the TGI [5] was 47.3 µM and the TGI [6] was > 100 µM. For the same compound, the TGI [7] was > 100 µM, the TGI [8] was 64.4 µM and the TGI [9] was 41 µM. It also gave a TGI [10] of 63.6 µM.
For `COc1ccc2cc(-c3c(-c4ccncc4)nc(-c4ccc(S(C)(=O)=O)cc4C)n3C)ccc2c1`, the GI50 [1] was 7.62 µM, the TGI [1] was > 25 µM and the GI50 [2] was 7.83 µM. The TGI [2] was > 25 µM, the GI50 [3] was 10.8 µM and the TGI [3] was > 25 µM. The GI50 [4] was 9.75 µM, the TGI [4] was > 25 µM and the GI50 [5] was 8.05 µM. The TGI [5] was > 25 µM, the GI50 [6] was 6.67 µM and the TGI [6] was > 25 µM. For the same compound, the GI50 [7] was 8.67 µM, the TGI [7] was > 25 µM and the GI50 [8] was 4.17 µM. The TGI [8] was > 20.4 µM, the GI50 [9] was 5.3 µM and the TGI [9] was 22 µM. The GI50 [10] was 9.89 µM and the TGI [10] was > 25 µM.
`COc1ccc(Cn2cc3c(c2)-c2oncc2CC3)cc1` was tested, and the GI50 [1] was 3 µM, the TGI [1] was > 25.7 µM and the GI50 [2] was 4.08 µM. It also gave a TGI [2] of 35.9 µM, a GI50 [3] of 2.94 µM and a TGI [3] of 14.9 µM. The GI50 [4] was 9.47 µM, the TGI [4] was > 100 µM and the GI50 [5] was 2.62 µM. It also gave a TGI [5] of 20.7 µM, a GI50 [6] of 2.95 µM and a TGI [6] of 40.5 µM. It also gave a GI50 [7] of 2.86 µM, a TGI [7] of 9.85 µM and a GI50 [8] of 16 µM. For the same compound, the TGI [8] was > 100 µM, the GI50 [9] was 6.53 µM and the TGI [9] was > 29.8 µM. For the same compound, the GI50 [10] was 2.97 µM and the TGI [10] was > 63.8 µM.
For `Nc1ccccc1C#C/C=C\C#Cc1ccccc1`, the GI50 [1] was 14.1 µM, the TGI [1] was 28.6 µM and the GI50 [2] was 11.3 µM. It also gave a TGI [2] of 31.8 µM, a GI50 [3] of 13 µM and a TGI [3] of 28.6 µM. It also gave a GI50 [4] of 11.6 µM, a TGI [4] of 26.8 µM and a GI50 [5] of 4.51 µM. It also gave a TGI [5] of 20.2 µM, a GI50 [6] of 13.7 µM and a TGI [6] of 58.9 µM. For the same compound, the GI50 [7] was 14.8 µM, the TGI [7] was 32.4 µM and the GI50 [8] was 11.8 µM. For the same compound, the TGI [8] was 31.3 µM, the GI50 [9] was 12.1 µM and the TGI [9] was 32.4 µM. For the same compound, the GI50 [10] was 1.26 µM and the TGI [10] was 10.7 µM.
`NC(=O)c1cc2c3ccccc3ccn2c1-c1ccccc1` gave a GI50 [1] of 0.0428 µM, a TGI [1] of 4.22 µM and a GI50 [2] of 0.0304 µM. The TGI [2] was 1.05 µM, the GI50 [3] was 0.0248 µM and the TGI [3] was 0.0716 µM. The GI50 [4] was 0.662 µM, the TGI [4] was 17.5 µM and the GI50 [5] was 0.0396 µM. For the same compound, the TGI [5] was 3.88 µM, the GI50 [6] was 0.758 µM and the TGI [6] was > 46.9 µM. The GI50 [7] was 0.0317 µM, the TGI [7] was 0.0919 µM and the GI50 [8] was 0.627 µM. For the same compound, the TGI [8] was 25.7 µM, the GI50 [9] was 0.155 µM and the TGI [9] was > 54.5 µM. The GI50 [10] was 0.0371 µM and the TGI [10] was 2.31 µM.
`CC[PH+](CC)CC.O=COC1OC([S-])C(OC=O)C(OC=O)C1OC=O.[Au+]` (stereo not given) was tested, and the GI50 [1] was 1.56 µM, the TGI [1] was 3.15 µM and the GI50 [2] was 1.8 µM. For the same compound, the TGI [2] was 3.24 µM, the GI50 [3] was 1.14 µM and the TGI [3] was 2.37 µM. The GI50 [4] was 1.46 µM, the TGI [4] was 2.82 µM and the GI50 [5] was 1.61 µM. For the same compound, the TGI [5] was 3.19 µM, the GI50 [6] was 0.374 µM and the TGI [6] was 1.77 µM. For the same compound, the GI50 [7] was 2.21 µM, the TGI [7] was 5.03 µM and the GI50 [8] was 1.96 µM. It also gave a TGI [8] of 4.23 µM, a GI50 [9] of 1.89 µM and a TGI [9] of 4.53 µM. It also gave a GI50 [10] of 1.35 µM and a TGI [10] of 5.07 µM.
For `CC1C(=O)OCC2=CCN3CCC(OC(=O)C(C)C1(C)O)C23` (stereo not given), the TGI [1] was > 100 µM, the TGI [2] was > 100 µM and the TGI [3] was > 100 µM. The TGI [4] was > 100 µM, the TGI [5] was > 100 µM and the TGI [6] was > 100 µM. The TGI [7] was > 100 µM, the TGI [8] was > 100 µM and the TGI [9] was > 100 µM. The TGI [10] was > 100 µM.
For `Cc1cc2c(cc1C)N(C(=O)CCl)CCN2C(=O)CCl`, the GI50 [1] was 0.186 µM, the TGI [1] was 0.409 µM and the GI50 [2] was 1.96 µM. It also gave a TGI [2] of 4.13 µM, a GI50 [3] of 1.65 µM and a TGI [3] of 3.24 µM. For the same compound, the GI50 [4] was 1.7 µM, the TGI [4] was 3.92 µM and the GI50 [5] was 1.72 µM. For the same compound, the TGI [5] was 3.31 µM, the GI50 [6] was 1.48 µM and the TGI [6] was 3.1 µM. The GI50 [7] was 0.746 µM, the TGI [7] was 5.9 µM and the GI50 [8] was 0.559 µM. The TGI [8] was 1.8 µM, the GI50 [9] was 1.44 µM and the TGI [9] was 3.37 µM. It also gave a GI50 [10] of 0.571 µM and a TGI [10] of 2.7 µM.
`O=c1cccc(C2CC(CO)C3CCCCN3C2)[nH]1` (stereo not given) was tested, and the TGI [1] was > 100 µM, the TGI [2] was > 100 µM and the TGI [3] was > 100 µM. For the same compound, the TGI [4] was > 100 µM, the TGI [5] was > 100 µM and the TGI [6] was > 100 µM. For the same compound, the TGI [7] was > 100 µM, the TGI [8] was > 100 µM and the TGI [9] was > 100 µM. The TGI [10] was > 100 µM.
In the case of `CCOc1cccc(/C=N/NC(=O)C(=O)Nc2cccc(C(F)(F)F)c2)c1O`, the GI50 [1] is reported as 1.02 µM, the TGI [1] is reported as > 100 µM and the GI50 [2] is reported as 0.372 µM. The TGI [2] was 7.97 µM, the GI50 [3] was 2.18 µM and the TGI [3] was 11.2 µM. For the same compound, the GI50 [4] was 1.43 µM, the TGI [4] was > 100 µM and the GI50 [5] was 3 µM. The TGI [5] was > 100 µM, the GI50 [6] was 5.38 µM and the TGI [6] was 57.8 µM. The GI50 [7] was 2.02 µM, the TGI [7] was 37.1 µM and the GI50 [8] was 3.96 µM. The TGI [8] was 50.1 µM, the GI50 [9] was 0.398 µM and the TGI [9] was > 100 µM. For the same compound, the GI50 [10] was 2.08 µM and the TGI [10] was > 100 µM.
For `CCn1c(-c2nonc2N)nc2c(C#CC(C)(C)O)nc(OCCNC)cc21`, the GI50 [1] was 7.14 µM, the TGI [1] was > 21.6 µM and the GI50 [2] was 6.66 µM. The TGI [2] was > 22.6 µM, the GI50 [3] was 6.11 µM and the TGI [3] was 20.7 µM. The GI50 [4] was 8.9 µM, the TGI [4] was > 25 µM and the GI50 [5] was 5.82 µM. The TGI [5] was 23.3 µM, the GI50 [6] was 7.78 µM and the TGI [6] was > 25 µM. The GI50 [7] was > 25 µM, the TGI [7] was > 25 µM and the GI50 [8] was 8.09 µM. For the same compound, the TGI [8] was > 23.1 µM, the GI50 [9] was 9.89 µM and the TGI [9] was > 25 µM. For the same compound, the GI50 [10] was 9.49 µM and the TGI [10] was > 25 µM.
In the case of `CC(CCC(=O)O)C(=O)O` (stereo not given), the TGI [1] is reported as > 100 µM, the TGI [2] is reported as > 100 µM and the TGI [3] is reported as > 100 µM. The TGI [4] was > 100 µM, the TGI [5] was > 100 µM and the TGI [6] was > 100 µM. The TGI [7] was > 100 µM, the TGI [8] was > 100 µM and the TGI [9] was > 100 µM. For the same compound, the TGI [10] was > 100 µM.
